Source: ChEMBL document CHEMBL1154543, “Facile synthesis and biological evaluation of a cell-permeable probe to detect redox-regulated proteins” (Bioorg Med Chem Lett, 2009)
Calls of active or inactive are those of the source. The calls are words filed in the database; no cut-off is given here.

Key:
[1] = molecular target: Glyceraldehyde-3-phosphate dehydrogenase (Homo sapiens) (UniProt P04406); assay: Binding affinity to sulfenic acid modified GAPDH by Western blot
HeLa [2] = assay: Binding affinity to sulfenic acid modified actin in human HeLa cells at 10 mM by Western blot; type: cell-based
[3] = molecular target: Glyceraldehyde-3-phosphate dehydrogenase (Homo sapiens) (UniProt P04406); assay: Inhibition of DAz1-biotin binding to sulfenic acid modified GAPDH at 250 uM by Western blot
[4] = molecular target: Glyceraldehyde-3-phosphate dehydrogenase (Homo sapiens) (UniProt P04406); assay: Binding affinity to sulfenic acid modified GAPDH in human HeLa cells at 10 mM by Western blot; type: cell-based
HeLa [5] = assay: Toxicity against human HeLa cells after 2 hrs by trypan blue exclusion method; type: cell-based
[6] = Binding affinity to Cdc25A C384S mutant assessed as protein labeling based detection of sulfenic acid modification at 10 mM by Western blot
[7] = molecular target: T1, Peroxiredoxin-1 (Homo sapiens) (UniProt Q06830); assay: Binding affinity to sulfenic acid modified peroxiredoxin human HeLa cells at 10 mM by Western blot; type: cell-based
T1 sequence (whole entry): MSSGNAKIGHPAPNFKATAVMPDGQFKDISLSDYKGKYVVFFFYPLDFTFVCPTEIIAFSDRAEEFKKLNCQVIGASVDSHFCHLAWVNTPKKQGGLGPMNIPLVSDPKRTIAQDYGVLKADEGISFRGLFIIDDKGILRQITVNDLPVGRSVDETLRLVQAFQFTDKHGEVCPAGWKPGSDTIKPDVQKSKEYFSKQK

[8] = Binding affinity to Cdc25A C384S mutant assessed as protein labeling based detection of sulfenic acid modification at 20 uM in presence of 5 mM DTT by Western blot

Glyceraldehyde-3-phosphate dehydrogenase (Homo sapiens), sequence (P04406 2-335 limits assumed): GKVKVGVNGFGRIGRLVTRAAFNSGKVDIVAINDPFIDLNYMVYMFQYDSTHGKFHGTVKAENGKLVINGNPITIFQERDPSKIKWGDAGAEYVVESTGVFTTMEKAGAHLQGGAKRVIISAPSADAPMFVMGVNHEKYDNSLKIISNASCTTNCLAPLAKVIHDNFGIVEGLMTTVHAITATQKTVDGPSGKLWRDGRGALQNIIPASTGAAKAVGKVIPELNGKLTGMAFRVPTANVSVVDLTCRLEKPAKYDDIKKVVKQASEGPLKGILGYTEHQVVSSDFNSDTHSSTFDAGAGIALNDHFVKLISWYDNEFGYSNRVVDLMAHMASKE

For `[N-]=[N+]=NCCCNC(=O)C1CC(=O)CC(=O)C1`, the Activity [1] was “Active”, the Activity (HeLa [2]) was “Active” and the inhibition [3] was 90%. For the same molecule, the Activity [4] was “Active”, the Activity (HeLa [5]) was “Non-toxic” and the Activity [6] was “Active”. The Activity [7] was “Active” and the Activity [8] was “inactive”.
